These results are taken from patent US12503475B2 (Centessa Pharmaceuticals (UK) Limited, priority 2020, dated 2025).

The target of the experiment is T1, human orexin type 2 receptor (hOX2R) (Homo sapiens, UniProt O43614).
T1 construct: expressed in transfected cells
T1 sequence (O43614 1-444): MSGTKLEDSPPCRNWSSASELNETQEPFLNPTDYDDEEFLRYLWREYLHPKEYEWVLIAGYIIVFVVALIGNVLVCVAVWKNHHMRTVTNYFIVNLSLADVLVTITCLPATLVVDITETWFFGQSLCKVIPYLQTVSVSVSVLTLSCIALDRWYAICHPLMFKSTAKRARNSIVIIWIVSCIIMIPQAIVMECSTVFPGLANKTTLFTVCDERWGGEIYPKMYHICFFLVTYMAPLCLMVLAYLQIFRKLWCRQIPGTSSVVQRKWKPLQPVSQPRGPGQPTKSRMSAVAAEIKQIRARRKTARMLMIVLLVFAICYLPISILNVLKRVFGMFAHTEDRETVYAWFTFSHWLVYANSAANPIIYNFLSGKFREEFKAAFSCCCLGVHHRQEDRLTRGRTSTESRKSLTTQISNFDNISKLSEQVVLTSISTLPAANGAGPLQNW
The experiment in a line: Measurement of orexin type 2 receptor agonist activity (FLIPR calcium fluorescence). It counts as cell-based. To be noted: for EC50: read-out: hOx2 pEC50 (converted); for Emax: CHO, read-out: hOx2 Emax (%). Put shortly:
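Agonism was read as fluorescence in cells stably expressing human OX2R. E. is the response at 10 μM relative to orexin A as full agonist (100%).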

The mark [1] stands for this setting: CHO cells expressing hOX2R, FLIPR calcium fluorescence.

Like-named read-outs stand apart in the source and are kept apart here.

For `C[C@H](CF)NC(=O)N1CC2(CC2)[C@H](NS(=O)(=O)C(F)F)[C@@H]1Cc1cccc(-c2ccccc2)c1F` [Compound 212, (6S,7S)-7-((difluoromethyl)sulfonamido)-6-((2-fluoro-[1,1′-biphenyl]-3-yl)methyl)-N-((R)-I-fluoropropan-2-yl)-5-azaspiro[2.4]heptane-5-carboxamide], under setting [1], the EC50 is 1 to 10 nM and the Emax is 90 to 100%.

As to `[2H]C([2H])([2H])C([2H])([2H])NC(=O)N1CC2(CC2)[C@H](NS(C)(=O)=O)[C@@H]1Cc1cccc(-c2ccccc2)c1OC` [Compound 363, (6S,7S)-N-(ethyl-d5)-6-((2-methoxy-[1,1′-biphenyl]-3-yl)methyl)-7-(methylsulfonamido)-5-azaspiro[2.4]heptane-5-carboxamide], under setting [1], the EC50 was 10 to 100 nM and the Emax is 70 to 80%.

Consider `CN(C)S(=O)(=O)N[C@@H]1[C@H](Cc2cccc(-c3ccccc3)c2F)N(C(=O)N2CCC2)CC12CC2` [Compound 116, N-((6S,7S)-5-(azetidine-1-carbonyl)-6-((2-fluoro-[1,1′-biphenyl]-3-yl)methyl)-5-azaspiro[2.4]heptan-7-yl)-N,N-dimethylsulfuric diamide], for which the Emax was in the range of 90 to 100%. Also, the EC50 under setting [1] is 0.0794 to 1 nM.

Turning to `CN(CC(F)F)C(=O)N1CC2(CC2)[C@H](NS(C)(=O)=O)[C@@H]1Cc1cccc(-c2ccccc2)c1F` [Compound 81, (6S,7S)-N-(2,2-difluoroethyl)-6-((2-fluoro-[1,1′-biphenyl]-3-yl)methyl)-N-methyl-7-(methylsulfonamido)-5-azaspiro[2.4]heptane-5-carboxamide], under setting [1], the EC50 is 0.0794 to 1 nM and the Emax was in the range of 90 to 100%.

As to `CS(=O)(=O)N[C@@H]1[C@H](Cc2cccc(-c3ccccc3)c2)N(C(=O)[C@H](O)CF)CC12CC2` [Compound 62, N-((6S,7S)-6-([1,1′-biphenyl]-3-ylmethyl)-5-((S)-3-fluoro-2-hydroxypropanoyl)-5-azaspiro[2.4]heptan-7-yl)methanesulfonamide], under setting [1], the EC50 was 10 to 100 nM and the Emax was 90 to 100%.

Take `CS(=O)(=O)N[C@@H]1[C@H](Cc2cccc(-c3cc(F)cc(F)c3)c2F)N(C(=O)N2CCC2)CC12CC2` [Compound 32, N-((6S,7S)-5-(azetidine-1-carbonyl)-6-((2,3′,5′-trifluoro-[1,1′-biphenyl]-3-yl)methyl)-5-azaspiro[2.4]heptan-7-yl)methanesulfonamide]: under setting [1], the EC50 was 0.0794 to 1 nM and the Emax was 90 to 100%.

With `CCCNC(=O)N1CC2(CC2)[C@H](NS(C)(=O)=O)[C@@H]1Cc1cccc(-c2ccccc2)c1OC` [Compound 342, (6S,7S)-6-((2-methoxy-[1,1′-biphenyl]-3-yl)methyl)-7-(methylsulfonamido)-N-propyl-5-azaspiro[2.4]heptane-5-carboxamide], under setting [1], the EC50 is 10 to 100 nM and the Emax was 70 to 80%.

With `CS(=O)(=O)N[C@@H]1[C@H](Cc2cccc(-c3ccccc3)c2F)N(C(=O)NCCCF)CC12CC2` [Compound 79, (6S,7S)-6-((2-fluoro-[1,1′-biphenyl]-3-yl)methyl)-N-(3-fluoropropyl)-7-(methylsulfonamido)-5-azaspiro[2.4]heptane-5-carboxamide], under setting [1], the EC50 is 1 to 10 nM and the Emax fell in the range of 90 to 100%.

As to `C[C@@H](F)S(=O)(=O)N[C@@H]1[C@H](Cc2cccc(-c3ccccc3)c2F)N(C(=O)[C@H]2CCO2)CC12CC2` [Compound 193, (S)-1-fluoro-N-((6S,7S)-6-((2-fluoro-[1,1′-biphenyl]-3-yl)methyl)-5-((R)-oxetane-2-carbonyl)-5-azaspiro[2.4]heptan-7-yl)ethane-1-sulfonamide], under setting [1], the EC50 was 1 to 10 nM and the Emax lay within 90 to 100%.

With `COCCOCCS(=O)(=O)N[C@@H]1[C@H](Cc2cccc(-c3ccccc3)c2)N(C(=O)[C@H]2CCO2)CC12CC2` [Compound 74, N-((6S,7S)-6-([1,1′-biphenyl]-3-ylmethyl)-5-((R)-oxetane-2-carbonyl)-5-azaspiro[2.4]heptan-7-yl)-2-(2-methoxyethoxy)ethane-1-sulfonamide], under setting [1], the EC50 was 10 to 100 nM and the Emax was in the range of 90 to 100%.

`C[C@]1(NC(=O)N2CC3(CC3)[C@H](NS(C)(=O)=O)[C@@H]2Cc2cccc(-c3ccccc3)c2F)CCOC1` [Compound 320, (6S,7S)-6-((2-fluoro-[1,1′-biphenyl]-3-yl)methyl)-7-(methylsulfonamido)-N-((S)-3-methyltetrahydrofuran-3-yl)-5-azaspiro[2.4]heptane-5-carboxamide]: under setting [1], the EC50 is 10 to 100 nM and the Emax lay in the range of 90 to 100%.

In the case of `O=C([C@H]1CCO1)N1CC2(CC2)[C@H](NS(=O)(=O)C2CC2)[C@@H]1Cc1cccc(-c2ccccc2)c1F` [Compound 69, N-((6S 7S)-6-((2-fluoro-[1,1′-biphenyl]-3-yl)methyl)-5-((R)-oxetane-2-carbonyl)-5-azaspiro[2.4]heptan-7-yl)cyclopropanesulfonamide], under setting [1], the EC50 was 0.0794 to 1 nM and the Emax lay in the range of 90 to 100%.

`C[C@@]1(C(=O)N2CC3(CC3)[C@H](NS(=O)(=O)CF)[C@@H]2Cc2cccc(-c3ccccc3)c2F)CCO1` [Compound 203, 1-fluoro-N-((6S,7S)-6-((2-fluoro-[1,1′-biphenyl]-3-yl)methyl)-5-((S)-2-methyloxetane-2-carbonyl)-5-azaspiro[2.4]heptan-7-yl)methanesulfonamide]: under setting [1], the EC50 was 1 to 10 nM and the Emax was in the range of 90 to 100%.

With `O=C(NCC(F)(F)F)N1CC2(CC2)[C@H](NS(=O)(=O)CF)[C@@H]1Cc1cc(F)cc(-c2ccccc2)c1F` [Compound 208, (6S,7S)-6-((2,5-difluoro-[1,1′-biphenyl]-3-yl)methyl)-7-((fluoromethyl)sulfonamido)-N-(2,2,2-trifluoroethyl)-5-azaspiro[2.4]heptane-5-carboxamide], under setting [1], the EC50 was 0.0794 to 1 nM and the Emax lay within 90 to 100%.

Take `O=C(NCC(F)F)N1CC2(CC2)[C@H](NS(=O)(=O)CF)[C@@H]1Cc1cccc(-c2cc(F)cc(F)c2)c1F` [Compound 411]: under setting [1], the EC50 was 0.0794 to 1 nM and the Emax is 90 to 100%.

Take `COC[C@@H](C)NC(=O)N1CC2(CC2)[C@H](NS(C)(=O)=O)[C@@H]1Cc1cccc(-c2ccccc2)c1F` [Compound 325, (6S,7S)-6-((2-fluoro-[1,1′-biphenyl]-3-yl)methyl)-N-((R)-1-methoxypropan-2-yl)-7-(methylsulfonamido)-5-azaspiro[2.4]heptane-5-carboxamide]: under setting [1], the EC50 is 1 to 10 nM and the Emax is 90 to 100%.

`N#CC1(C(=O)N2CC3(CC3)[C@H](NS(=O)(=O)CF)[C@@H]2Cc2cccc(-c3ccccc3)c2F)CCC1` [Compound 181, N-((6S,7S)-5-(1-cyanocyclobutane-1-carbonyl)-6-((2-fluoro-[1,1′-biphenyl]-3-yl)methyl)-5-azaspiro[2.4]heptan-7-yl)-1-fluoromethanesulfonamide]: under setting [1], the EC50 is 1 to 10 nM and the Emax was 90 to 100%.

Take `CN(C)S(=O)(=O)N[C@@H]1[C@H](Cc2cccc(-c3ccccc3)c2F)N(C(=O)[C@H](O)C(F)(F)F)CC12CC2` [Compound 119, N-((6S,7S)-6-((2-fluoro-[1,1′-biphenyl]-3-yl)methyl)-5-((S)-3,3,3-trifluoro-2-hydroxypropanoyl)-5-azaspiro[2.4]heptan-7-yl)-N,N-dimethylsulfuric diamide]: under setting [1], the EC50 was 0.0794 to 1 nM and the Emax is 90 to 100%.

For `O=C(NCC1(F)CC1)N1CC2(CC2)[C@H](NS(=O)(=O)CF)[C@@H]1Cc1cc(F)cc(-c2cc(F)cc(F)c2)c1F` [Compound 415, (6S,7S)-N-((1-fluorocyclopropyl)methyl)-7-((fluoromethyl)sulfonamido)-6-((2,3′,5,5′-tetrafluoro-[1,1′-biphenyl]-3-yl)methyl)-5-azaspiro[2.4]heptane-5-carboxamide], under setting [1], the EC50 was 1 to 10 nM and the Emax lay within 90 to 100%.

Take `CCNC(=O)N1CC2(CC2)C(NS(C)(=O)=O)C1Cc1cccc(-c2ccccc2)c1F` (racemic) [Compound 38, N-ethyl-6-((2-fluoro-[1,1′-biphenyl]-3-yl)methyl)-7-(methylsulfonamido)-5-azaspiro[2.4]heptane-5-carboxamide]: under setting [1], the EC50 is 1 to 10 nM and the Emax was in the range of 90 to 100%.

`C[C@H](F)C(=O)N1CC2(CC2)[C@H](NS(=O)(=O)C(F)F)[C@@H]1Cc1cccc(-c2ccccc2)c1F` [Compound 160, 1,1-difluoro-N-((6S,7S)-6-((2-fluoro-[1,1′-biphenyl]-3-yl)methyl)-5-((S)-2-fluoropropanoyl)-5-azaspiro[2.4]heptan-7-yl)methanesulfonamide]: under setting [1], the EC50 was 0.0794 to 1 nM and the Emax lay in the range of 90 to 100%.

Regarding `CS(=O)(=O)N[C@@H]1[C@H](Cc2cc(F)cc(-c3ccccc3F)c2F)N(C(=O)[C@H]2CCO2)CC12CC2` [Compound 350, N-((6S,7S)-5-((R)-oxetane-2-carbonyl)-6-((2,2′,5-trifluoro-[1,1′-biphenyl]-3-yl)methyl)-5-azaspiro[2.4]heptan-7-yl)methanesulfonamide], under setting [1], the EC50 is 10 to 100 nM and the Emax was 90 to 100%.
